This is an account of results in article PMC5687316 (Acta Pharmaceutica Sinica. B, 2017).

Structures are written as SMILES. Structures can show the parent of a compound that is named as a salt.

Usually Ki stands for a dissociation constant, usually derived from enzyme kinetics or from competition with a known ligand. For orientation: IC50 means the concentration that inhibits the measured activity by half. A word on the fraction unbound: it is the share of the substance not bound to proteins or other matrix. Low readings indicate extensive binding, high ones weak binding.

The nature of data set [1]: Nonspecific binding to HLMs. As to conditions: HLMs 0.2 mg/mL. The format is in vitro ADME, human.
The target of the next data set is T1, UGT1A1 in HLMs (Homo sapiens, UniProt P22309).
T1 sequence (P22309 26-533): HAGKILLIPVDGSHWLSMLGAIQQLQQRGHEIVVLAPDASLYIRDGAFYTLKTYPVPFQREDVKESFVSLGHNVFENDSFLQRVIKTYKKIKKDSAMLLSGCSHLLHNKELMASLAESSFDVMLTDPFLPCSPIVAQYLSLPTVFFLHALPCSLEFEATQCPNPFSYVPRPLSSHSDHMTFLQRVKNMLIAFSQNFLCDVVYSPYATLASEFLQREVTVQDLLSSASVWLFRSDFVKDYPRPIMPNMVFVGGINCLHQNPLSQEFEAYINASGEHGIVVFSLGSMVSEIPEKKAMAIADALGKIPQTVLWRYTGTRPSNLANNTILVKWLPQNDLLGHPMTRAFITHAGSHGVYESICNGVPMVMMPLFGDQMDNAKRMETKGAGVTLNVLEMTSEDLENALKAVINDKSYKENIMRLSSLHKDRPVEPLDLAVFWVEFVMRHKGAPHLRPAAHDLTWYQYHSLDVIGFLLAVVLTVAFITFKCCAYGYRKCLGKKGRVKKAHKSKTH
The format is biochemical. As to conditions: for Inhibition type: HLM, Lineweaver-Burk and Dixon plots; for time dependence of UGT1A1 inhibition: data not shown; for phase II metabolites of the inhibitor in the incubations: UGT1A1/HLM incubations with UDPGA.

The target of a further data set is T2, UGT1A1 (Homo sapiens, UniProt P22309).
T2 sequence (P22309 26-533): T1 sequence (P22309 26-533)
The data set can be described thus: Inhibition of NCHN-4-O-glucuronidation in recombinant human UGT1A1. It counts as biochemical. As to conditions: for activity at 50 min, 10 µmol/L: human, recombinant human UGT1A1, pH 7.4, probe NCHN (NCHN-4-O-glucuronidation); for Inhibition type: recombinant human UGT1A1, Lineweaver-Burk and Dixon plots.

The nature of data set [2]: Maximum plasma concentration in humans after oral administration. As to conditions: human, calculated as Cmax × fu; icotinib 125 mg × 3 daily, erlotinib 150 mg.

With `C#Cc1cccc(Nc2ncnc3cc4c(cc23)OCCOCCOCCO4)c1` [Icotinib, 4-[(3-ethynylphenyl)amino]-6,7-benzo-12-crown-4-quinazoline hydrochloride], the “binding to HLMs” value in data set [1] is given as “negligible binding”. On UGT1A1 in HLMs, the inhibition constant (Ki) came out at 8.55 µM, the Inhibition type result is “Noncompetitive” and the “phase II metabolites of the inhibitor in the incubations” value is listed as “no phase II metabolites”. In addition, the “fold difference in Ki between icotinib and erlotinib” value at UGT1A1 in HLMs (HLMs, NCHN-O-glucuronidation) is recorded as “about 7 fold”. Further, the “time dependence of UGT1A1 inhibition” value on UGT1A1 in HLMs (HLMs) was “not time-dependent”. In addition, the IC50 on UGT1A1 in HLMs (IC50, HLM 0.2 mg/mL, NCHN-4-O-glucuronidation) worked out at 5.15 ± 0.28 µM. For the same molecule, on UGT1A1, the Ki stood at 10 µM; the activity at 50 min, 10 µmol/L was determined as 36%; the Inhibition type entry was “Noncompetitive”. In addition, at UGT1A1 (IC50, recombinant human UGT1A1 0.06 mg/mL, NCHN-4-O-glucuronidation), the IC50 was 8.76 ± 0.78 µM. Moreover, the “Cmax,u” value in data set [2] was 530 nM. The same molecule had a fraction unbound in the data set “Binding to human plasma” of 0.11.
For the molecule `C#Cc1cccc(Nc2ncnc3cc(OCCOC)c(OCCOC)cc23)c1` [Erlotinib], in data set [1], the “binding to HLMs” value was “negligible binding”. On UGT1A1 in HLMs, the Inhibition type result is recorded as “Noncompetitive” and the “phase II metabolites of the inhibitor in the incubations” value is given as “no phase II metabolites”. The “time dependence of UGT1A1 inhibition” value on UGT1A1 in HLMs (HLMs) is listed as “not time-dependent”. On UGT1A1, the activity at 50 min, 10 µmol/L is 19% and the Inhibition type result was “Noncompetitive”. Besides, in data set [2], the “Cmax,u” value is 550 nM. Further, the fraction unbound in “Binding to human plasma” was found to be 0.09.
